One cell line from the supplement of paper PMC10307832 can be followed below.

Holding throughout (experiment): relative viability (nuclei count vs DMSO), 5 days (fraction); higher = more cells survive
Compound in the experiment “Metformin + Navitoclax”: CN(C)C(=N)NC(=N)N [Metformin] + CC1(C)CCC(c2ccc(Cl)cc2)=C(CN2CCN(c3ccc(C(=O)NS(=O)(=O)c4ccc(N[C@H](CCN5CCOCC5)CSc5ccccc5)c(S(=O)(=O)C(F)(F)F)c4)cc3)CC2)C1 [Navitoclax] (partner 0.5 µM)
The method in brief: (§1)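 Cells from lung cancer lines were seeded into 1536-well plates and, one day later, dosed by pin tool. Treatments were either a single drug or a fixed dose of an anchor drug with five library-drug doses (not always all listed) in √10 steps. After 5 days, nuclei were stained in a one-step fixation (final 0.05% Triton X-100, 1% formaldehyde, 1 ug/ml Hoechst) and counted on 4× images, and relative viability is the treated-to-vehicle nuclei ratio, as the median of duplicate plates.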

Compound in the experiment “Apatinib + Linsitinib”: N#CC1(c2ccc(NC(=O)c3cccnc3NCc3ccncc3)cc2)CCCC1 [Apatinib] + C[C@]1(O)C[C@@H](c2nc(-c3ccc4ccc(-c5ccccc5)nc4c3)c3c(N)nccn32)C1 [Linsitinib] (partner 1 µM)
Put shortly: as §1

Compound in the experiment “Apatinib + Alpelisib”: N#CC1(c2ccc(NC(=O)c3cccnc3NCc3ccncc3)cc2)CCCC1 [Apatinib] + Cc1nc(NC(=O)N2CCC[C@H]2C(N)=O)sc1-c1ccnc(C(C)(C)C(F)(F)F)c1 [Alpelisib] (partner 2 µM)
The method in brief: as §1

Compound in the experiment “Apatinib + AZD7762”: N#CC1(c2ccc(NC(=O)c3cccnc3NCc3ccncc3)cc2)CCCC1 [Apatinib] + NC(=O)Nc1cc(-c2cccc(F)c2)sc1C(=O)N[C@H]1CCCNC1 [AZD7762] (partner 0.2 µM)
The method in brief: as §1

Regarding NCI-H460, the relative viability with Metformin + Navitoclax (first compound 31.62 µM) came to 1.22; in the experiment with Metformin + Navitoclax (first compound 100 µM), 1.16; with Metformin + Navitoclax (first compound 316.23 µM) it was 1.02; with Metformin + Navitoclax (first compound 1000 µM), 1.14; with Apatinib + Linsitinib (first compound 0.08 µM) it was 0.841; with Apatinib + Linsitinib (first compound 0.253 µM), 0.863. The relative viability in the experiment with Apatinib + Linsitinib (first compound 0.8 µM) was 0.661; with Apatinib + Linsitinib (first compound 2.53 µM) it was 0.737; with Apatinib + Linsitinib (first compound 8 µM) it was 0.64; in the experiment with Apatinib + Alpelisib (first compound 0.08 µM), 0.557; in the experiment with Apatinib + Alpelisib (first compound 0.253 µM) it was 0.478; in the experiment with Apatinib + Alpelisib (first compound 0.8 µM) it was 0.475. The relative viability with Apatinib + Alpelisib (first compound 2.53 µM) is 0.498; with Apatinib + Alpelisib (first compound 8 µM), 0.479; in the experiment with Apatinib + AZD7762 (first compound 0.08 µM), 0.538; with Apatinib + AZD7762 (first compound 0.253 µM), 0.581; in the experiment with Apatinib + AZD7762 (first compound 0.8 µM), 0.417; with Apatinib + AZD7762 (first compound 2.53 µM), 0.269. The relative viability with Apatinib + AZD7762 (first compound 8 µM) came to 0.394.
